Columns and labels:
Her2 = Her2 (Homo sapiens, UniProt P04626); assay: Elution of Her2 from ATP-Sepharose column by compound (Proteome Mining), IC50 estimate; format: binding; conditions: estimated from percent of protein eluted from ATP-Sepharose column, gel densitometry; read-out: Approximate IC50 for Her2
Protocol: A proteome containing a known quantity of Her2, EGFR, and B-Raf was run over an ATP-Sepharose™ column in order to bind all purine-binding proteins. […] The ATP-Sepharose™ was washed several times, and then eluted with the compound of Formula III. The experiment was run in duplicate at concentrations of 20 μM, 100 μM, and 500 μM of the compound of Formula III. The eluted fractions were run on a 1-dimensional SDS polyacrylamide gel. Gels were stained with a fluorescent stain such as sypro ruby (a highly sensitive fluorescent protein stain that can readily detect less than 1 fmol of total protein, i.e., less than 0.04 ng for a 40 kDa protein). The gels were imaged using a standard flat bed gel imager and the amount of protein estimated by densiometry. The percent of protein eluted from the column at each concentration was determined and IC50 values were calculated from these estimates. Where necessary, the eluted proteins were cut out of the gel, and identified using mass spectral techniques.

[1] = target: T1, pyruvate carboxylase (PYC) (Sus scrofa, UniProt A0A8W4F6F0); assay: Elution of PYC from ATP-Sepharose column loaded with porcine liver proteome, IC50 estimate; format: binding; conditions: estimated from percent of protein eluted from ATP-Sepharose column, read-out: Approximate IC50 for PYC
T1 construct: a porcine liver proteome was run over an ATP-Sepharose™ column; from tissue; host or cells: porcine liver
T1 sequence (A0A8W4F6F0 1-1157): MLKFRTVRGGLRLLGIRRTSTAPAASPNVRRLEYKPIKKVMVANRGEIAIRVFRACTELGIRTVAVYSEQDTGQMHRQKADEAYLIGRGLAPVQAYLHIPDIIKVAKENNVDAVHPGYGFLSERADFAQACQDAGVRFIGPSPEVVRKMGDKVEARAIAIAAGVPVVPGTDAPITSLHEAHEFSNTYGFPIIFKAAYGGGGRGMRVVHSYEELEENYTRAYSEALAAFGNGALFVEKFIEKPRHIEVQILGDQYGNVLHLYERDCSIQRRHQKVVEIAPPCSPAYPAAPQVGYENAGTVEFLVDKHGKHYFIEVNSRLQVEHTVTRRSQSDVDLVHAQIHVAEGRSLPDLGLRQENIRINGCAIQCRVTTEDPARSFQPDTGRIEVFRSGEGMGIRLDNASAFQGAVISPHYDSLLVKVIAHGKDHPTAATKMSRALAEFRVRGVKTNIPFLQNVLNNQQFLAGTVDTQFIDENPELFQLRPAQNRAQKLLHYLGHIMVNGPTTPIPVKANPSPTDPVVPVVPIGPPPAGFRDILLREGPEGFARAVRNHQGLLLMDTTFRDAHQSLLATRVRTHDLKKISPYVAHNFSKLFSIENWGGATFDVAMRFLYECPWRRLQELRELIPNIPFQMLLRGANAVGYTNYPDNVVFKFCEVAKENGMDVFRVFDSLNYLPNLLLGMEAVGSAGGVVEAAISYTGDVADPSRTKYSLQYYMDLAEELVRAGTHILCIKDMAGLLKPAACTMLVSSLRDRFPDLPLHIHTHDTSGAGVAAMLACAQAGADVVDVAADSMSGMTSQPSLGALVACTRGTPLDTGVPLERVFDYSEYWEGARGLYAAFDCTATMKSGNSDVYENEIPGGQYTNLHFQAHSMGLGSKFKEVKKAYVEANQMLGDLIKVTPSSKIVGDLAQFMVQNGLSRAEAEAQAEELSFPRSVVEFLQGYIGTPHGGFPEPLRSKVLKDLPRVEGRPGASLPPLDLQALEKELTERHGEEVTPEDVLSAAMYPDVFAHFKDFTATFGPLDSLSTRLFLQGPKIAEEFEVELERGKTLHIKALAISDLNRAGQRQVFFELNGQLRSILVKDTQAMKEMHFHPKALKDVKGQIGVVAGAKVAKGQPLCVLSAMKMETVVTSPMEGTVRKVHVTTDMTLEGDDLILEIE
Protocol: Similar experiments were carried out to compare the IC50 values for PYC, PCCA, and PCCB. In these trials, a porcine liver proteome was run over an ATP-Sepharose™ column to bind all purine-binding proteins. The ATP-Sepharose™ column was washed several times, and then eluted with the compound of Formula III at concentrations of 1 μM, 5 μM, 10 μM, 50 μM, 100 μM, and 500 μM to identify proteins that bound to this compound. (The amount of protein eluted at the higher concentration ranges plateaued, thus confirming that the entire fraction of bound protein had been eluted.) The eluted fractions were run on a 1-dimensional SDS polyacrylamide gel.
Gels were stained with a fluorescent stain such as sypro ruby (a highly sensitive fluorescent protein stain that can readily detect less than 1 fmol of total protein, i.e., less than 0.04 ng for a 40 kDa protein). The gels were imaged using a standard flat bed gel imager and the amount of protein estimated by densiometry. The percent of protein eluted from the column at each concentration was determined and IC50 values were calculated from these estimates. Where necessary, the eluted proteins were cut out of the gel, and identified using mass spectral techniques.
These steps were repeated with each of the compounds of Formulas IV-X, MTX, and the c series derivative. The values obtained were then compared to those for DHFR.

DHFR = target: T2, DHFR (Homo sapiens, UniProt P00374); assay: DHFR enzymatic assay; format: biochemical; conditions: determined by enzymatic assay
T2 sequence (P00374 1-187): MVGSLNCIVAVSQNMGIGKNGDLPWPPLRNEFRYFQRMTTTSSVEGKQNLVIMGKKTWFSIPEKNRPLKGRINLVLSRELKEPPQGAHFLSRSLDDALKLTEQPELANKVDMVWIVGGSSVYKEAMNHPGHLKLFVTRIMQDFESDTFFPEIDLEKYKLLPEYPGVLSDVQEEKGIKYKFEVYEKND

Her2, sequence (P04626 23-1255, species assumed): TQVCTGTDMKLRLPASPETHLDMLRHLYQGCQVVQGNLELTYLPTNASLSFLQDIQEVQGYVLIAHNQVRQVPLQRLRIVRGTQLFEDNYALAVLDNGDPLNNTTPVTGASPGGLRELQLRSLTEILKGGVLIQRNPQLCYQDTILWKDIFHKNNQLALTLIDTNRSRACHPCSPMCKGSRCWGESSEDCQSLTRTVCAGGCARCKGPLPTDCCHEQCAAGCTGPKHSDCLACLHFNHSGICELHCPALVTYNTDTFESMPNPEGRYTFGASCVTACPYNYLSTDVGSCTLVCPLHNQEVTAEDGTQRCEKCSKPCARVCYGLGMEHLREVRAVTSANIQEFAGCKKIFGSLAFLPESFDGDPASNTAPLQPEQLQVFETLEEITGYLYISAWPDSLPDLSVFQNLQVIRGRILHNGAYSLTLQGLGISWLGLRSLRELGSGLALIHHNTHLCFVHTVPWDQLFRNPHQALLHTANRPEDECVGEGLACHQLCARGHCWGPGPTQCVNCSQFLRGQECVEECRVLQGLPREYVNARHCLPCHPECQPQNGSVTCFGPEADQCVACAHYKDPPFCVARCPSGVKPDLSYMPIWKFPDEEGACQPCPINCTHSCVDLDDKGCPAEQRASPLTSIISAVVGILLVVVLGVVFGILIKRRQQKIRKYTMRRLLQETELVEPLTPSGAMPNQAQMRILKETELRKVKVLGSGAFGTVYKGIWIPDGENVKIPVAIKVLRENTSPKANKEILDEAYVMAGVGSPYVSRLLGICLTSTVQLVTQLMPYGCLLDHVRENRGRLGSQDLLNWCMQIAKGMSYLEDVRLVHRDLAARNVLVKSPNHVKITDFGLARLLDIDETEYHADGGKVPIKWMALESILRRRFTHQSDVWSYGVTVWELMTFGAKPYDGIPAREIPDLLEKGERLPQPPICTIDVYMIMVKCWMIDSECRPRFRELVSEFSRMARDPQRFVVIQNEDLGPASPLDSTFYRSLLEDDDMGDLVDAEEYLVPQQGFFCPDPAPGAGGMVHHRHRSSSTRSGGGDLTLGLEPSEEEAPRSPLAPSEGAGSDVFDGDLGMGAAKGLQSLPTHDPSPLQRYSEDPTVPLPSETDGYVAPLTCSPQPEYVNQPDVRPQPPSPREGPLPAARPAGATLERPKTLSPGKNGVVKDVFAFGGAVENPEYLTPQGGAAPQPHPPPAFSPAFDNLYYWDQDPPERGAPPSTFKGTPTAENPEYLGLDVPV

Compound	IC50 (Her2) [µM]	IC50 [1] [µM]	IC50 (DHFR) [µM]
C#CCN(Cc1cnc2nc(N)nc(N)c2n1)c1ccc(C(=O)NC(CCC(=O)O)C(=O)O)cc1C (stereo not drawn) [Formula III, 2-{4-[(2,4-diamino-pteridin-6-ylmethyl)-prop-2-ynyl-amino]-3-methyl-benzoylamino}-pentanedioic acid]	0.9	3.8	0.01
Cc1cc(C(=O)NC(CCC(=O)O)C(=O)O)ccc1N(Cc1ccoc1)Cc1cnc2nc(N)nc(N)c2n1 (stereo not drawn) [Formula VII]	5	3.5	0.015
C#CCN(Cc1cnc2nc(N)nc(N)c2n1)c1ccc(C(=O)NC(CCC(=O)O)C(=O)O)cc1OC(F)(F)F (stereo not drawn) [Formula IX]	7.5	7	0.118
C#CCN(Cc1cnc2nc(N)nc(N)c2n1)c1ccc(C(=O)NC(CCC(=O)O)C(=O)O)cc1OC (stereo not drawn) [Formula VIII]	5	3.75	0.015

— patent US20060035901A1, “Methotrexate derivatives useful for treating cancer and arthritis” (Serenex, Inc., priority 2004, published 2006)
